One may read the IC50 as the concentration at which inhibition is half-maximal.

Assay [1] concerns the target T1, human recombinant ETA receptors (Homo sapiens, UniProt P25101).
T1 construct: expressed in transfected cells; host or cells: CHO cells (microsomal membranes)
T1 sequence (P25101 21-427): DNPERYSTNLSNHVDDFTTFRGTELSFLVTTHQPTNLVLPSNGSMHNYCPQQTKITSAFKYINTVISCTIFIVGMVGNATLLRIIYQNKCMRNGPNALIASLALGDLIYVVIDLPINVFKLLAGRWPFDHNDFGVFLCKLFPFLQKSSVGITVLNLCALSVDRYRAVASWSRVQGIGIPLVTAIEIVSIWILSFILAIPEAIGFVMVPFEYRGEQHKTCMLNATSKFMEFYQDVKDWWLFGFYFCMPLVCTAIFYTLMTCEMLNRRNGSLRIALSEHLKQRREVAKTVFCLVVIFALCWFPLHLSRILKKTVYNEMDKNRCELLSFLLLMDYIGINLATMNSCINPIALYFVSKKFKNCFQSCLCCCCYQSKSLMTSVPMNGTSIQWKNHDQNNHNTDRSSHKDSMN
Nature of the assay: Inhibition of endothelin binding to membranes from CHO cells carrying human ET receptors (ETA).

The target of assay [2] is T2, human recombinant ETB receptors (Homo sapiens, UniProt P24530).
T2 construct: expressed in transfected cells; host or cells: CHO cells (microsomal membranes)
T2 sequence (P24530 27-442): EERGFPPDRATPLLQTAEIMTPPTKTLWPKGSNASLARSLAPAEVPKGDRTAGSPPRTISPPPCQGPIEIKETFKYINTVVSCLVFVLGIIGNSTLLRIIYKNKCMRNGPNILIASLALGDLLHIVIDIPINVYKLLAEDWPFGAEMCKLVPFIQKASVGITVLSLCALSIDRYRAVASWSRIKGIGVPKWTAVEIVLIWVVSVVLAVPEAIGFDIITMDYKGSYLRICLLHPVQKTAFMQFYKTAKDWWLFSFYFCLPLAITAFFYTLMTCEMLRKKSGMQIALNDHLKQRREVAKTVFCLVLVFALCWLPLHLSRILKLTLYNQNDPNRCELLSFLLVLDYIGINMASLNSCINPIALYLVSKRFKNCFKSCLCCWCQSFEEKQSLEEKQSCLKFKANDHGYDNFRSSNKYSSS
Nature of the assay: Inhibition of endothelin binding to membranes from CHO cells carrying human ET receptors (ETB). Here is the method: 1) Inhibition of Endothelin Binding to Membranes from CHO Cells Carrying Human ET Receptors:
For competition binding studies, membranes of CHO cells expressing human recombinant ETA or ETB receptors were used. Microsomal membranes from recombinant CHO cells were prepared and the binding assay made as previously described (Breu V., et al, FEBS Lett 1993; 334:210).
The assay was performed in 200 uL 50 mM Tris/HCl buffer, pH 7.4, including 25 mM MnCl2, 1 mM EDTA and 0.5% (w/v) BSA in polypropylene microtiter plates. […]. […] After two h, the membranes were filtered on, filterplates containing GF/C filters (Unifilterplates from Canberra Packard S. A. Zürich, Switzerland). To each well, 50 uL of scintillation cocktail was added (MicroScint 20, Canberra Packard S. A. Zürich, Switzerland) and the filter plates counted in a microplate counter (TopCount, Canberra Packard S. A. Zürich, Switzerland).
All the test compounds were dissolved, diluted and added in DMSO. […] […].

The mark [3] stands for this setting: membranes of CHO cells expressing human recombinant ETA receptors, 8 pM [125I]ET-1, 2 h at 20° C.
Setting [4] is: membranes of CHO cells expressing human recombinant ETB receptors, 8 pM [125I]ET-1, 2 h at 20° C.

Read-outs that look alike come from different tables or passages of the source.

In the case of “5-i-propyl-N-[6-(2-ethanesulfonylamino-ethoxy)-5-(o-methoxyphenoxy)-2-cyclopropyl-pyrimidin-4-yl]-pyridine-2-sulfonamide [Example 38]”, the figures for the IC50 in assay [1] (setting [3]) and in assay [2] (setting [4]) were 80 nM and 84 nM, respectively.

For “5-isopropyl-N-[6-(2-(1-propanesulfonylamino)-ethoxy)-5-(o-methoxyphenoxy)-2-(2-pyridyl)-4-pyrimidinyl]-2-pyridine sulfonamide [Example 72]”, the figures for the IC50 in assay [1] (setting [3]) and in assay [2] (setting [4]) were 153 nM and 279 nM, respectively.

On to `COc1ccccc1Oc1c(NS(=O)(=O)c2ccc(C(C)(C)C)cc2)nc(-c2ncccn2)nc1OCCNS(=O)(=O)C(F)(F)F` [Example 5, p-tert.-butyl-N-[6-(ethoxy-2-trifluoromethanesulfonamido)-5-(o-methoxyphenoxy)-2-(2-pyrimidinyl)-4-pyrimidinyl]benzene-sulfonamide], for which the values for the IC50 in assay [1] and in assay [2] were 5560 nM and 356 nM, respectively.

As to `COc1ccccc1Oc1c(NS(=O)(=O)c2ccc(C(C)(C)C)cc2)nc(-c2ncccn2)nc1OCCNS(=O)(=O)c1ccc(C)cc1` [Example 6, p-tert.-butyl-N-[6-(ethoxy-2-p-toluenesulfonamido)-5-(o-methoxyphenoxy)-2-(2-pyrimidinyl)-4-pyrimidinyl]benzene-sulfonamide], the IC50 in assay [1] (setting [3]) came out at 8300 nM; in assay [2] (setting [4]) it was 420 nM.

Consider `CCS(=O)(=O)NCCOc1nc(-c2ncccn2)nc(NS(=O)(=O)c2ccc(C(C)(C)C)cc2)c1Oc1ccccc1OC` [Example 8, p-tert.-butyl-N-[6-(ethoxy-2-ethanesulfonamido)-5-(o-methoxyphenoxy)-2-(2-pyrimidinyl)-4-pyrimidinyl]benzene-sulfonamide], for which the IC50 turned out to be 160 nM in assay [1] (setting [3]) and 130 nM in assay [2] (setting [4]).

On to `COc1ccccc1Oc1c(NS(=O)(=O)c2ccc(C(C)C)cn2)nc(-c2ccncc2)nc1OCCNS(C)(=O)=O` [Example 14, 5-i.-propyl-N-[6-(ethoxy-2-methanesulfonamido)-5-(o-methoxyphenoxy)-2-(4-pyridyl)-4-pyrimidinyl]pyridine-2-sulfonamide], for which the concentration for half-maximal inhibition (IC50) came to 518 nM in assay [1] and 451 nM in assay [2].

`CCCCS(=O)(=O)NCCOc1nc(-c2ncccn2)nc(NS(=O)(=O)c2ccc(C(C)(C)C)cc2)c1Oc1ccccc1OC` [Example 17, p-tert.-butyl-N-[6-(ethoxy-2-(1-butanesulfonamido))-5-(o-methoxyphenoxy)-2-(2-pyrimidinyl)-4-pyrimidinyl]benzene-sulfonamide]: the figures for the IC50 in assay [1] and in assay [2] were 1100 nM and 117 nM, respectively.

As to `COc1ccccc1Oc1c(NS(=O)(=O)c2ccc(C(C)C)cn2)nc(-c2cc(OC)c(OC)c(OC)c2)nc1OCCNS(=O)(=O)C(C)C` [Example 18], the results for the IC50 in assay [1] and in assay [2] were 209 nM and 1050 nM, respectively.

Regarding `COc1ccccc1Oc1c(NS(=O)(=O)c2ccc(C(C)C)cn2)nc(C)nc1OCCNS(=O)(=O)c1ccc(C)cc1` [Example 21, 5-i.-propyl-N-[6-(ethoxy-2-p-toluenesulfonamido)-5-(o-methoxyphenoxy)-2-methyl-4-pyrmidinyl]pyridine-2-sulfonamide], the IC50 in assay [1] amounted to 881 nM; in assay [2], 21.8 nM.

Regarding `COc1ccccc1Oc1c(NS(=O)(=O)c2ccc(C(C)C)cn2)nc(C)nc1OCCNS(C)(=O)=O` [Example 23, 5-i.-propyl-N-[6-(ethoxy-2-methanesulfonamido)-5-(o-methoxyphenoxy)-2-methyl-4-pyrimidinyl]pyridine-2-sulfonamide], the concentration for half-maximal inhibition (IC50) in assay [1] amounted to 76.1 nM; in assay [2], 52.7 nM.

Take `COc1ccccc1Oc1c(NS(=O)(=O)c2ccc(C(C)(C)C)cc2)ncnc1OCCNS(=O)(=O)c1ccc(Br)cc1` [Example 27, 4-tert.-butyl-N-{6-[2-(4-bromobenzenesulfonyl-amino)-ethoxy]-5-(o-methoxy-phenoxy)-pyrimidin-4-yl}-benzenesulfonamide]: the IC50 amounted to 3630 nM in assay [1] and 995 nM in assay [2].

Turning to `COc1ccccc1Oc1c(NS(=O)(=O)c2ccc(C(C)(C)C)cc2)ncnc1OCCNS(=O)(=O)c1ccc(C)cc1` [Example 28, 4-tert.-butyl-N-{6-[2-(4-methylbenzenesulfonyl-amino)-ethoxy]-5-(o-methoxy-phenoxy)-pydmidin-4-yl}-benzenesulfonamide], the IC50 in assay [1] amounted to 3710 nM; in assay [2], 1040 nM.

Consider `COc1ccccc1Oc1c(NS(=O)(=O)c2ccc(C(C)(C)C)cc2)ncnc1OCCNS(=O)(=O)c1cccs1` [Example 29, 4-tert.-butyl-N-{6-[2-(2-thiophenesulfonyl-amino)-ethoxy]-5-(o-methoxy-phenoxy)-pydmidin-4-yl}-benzenesulfonamide], for which the results for the half-maximal inhibitory concentration (IC50) in assay [1] and in assay [2] were 1250 nM and 235 nM, respectively.

Take `CCCS(=O)(=O)NCCOc1ncnc(NS(=O)(=O)c2ccc(C(C)(C)C)cc2)c1Oc1ccccc1OC` [Example 30, 4-tert.-butyl-N-{6-[2-(1-propanesulfonyl-amino)-ethoxy]-5-(o-methoxy-phenoxy)-pyrimidin-4-yl}-benzenesulfonamide]: the IC50 in assay [1] stood at 484 nM; in assay [2], 288 nM.

Consider `CCS(=O)(=O)NCCOc1ncnc(NS(=O)(=O)c2ccc(C(C)(C)C)cc2)c1Oc1ccccc1OC` [Example 31, 4-tert.-butyl-N-{6-[2-(ethanesulfonylamino)-ethoxy]-5-(o-methoxy-phenoxy)-pydmidin-4-yl}-benzenesulfonamide], for which the results for the IC50 in assay [1] and in assay [2] were 409 nM and 735 nM, respectively.

Regarding `CCS(=O)(=O)NCCOc1nc(SC)nc(NS(=O)(=O)c2ccc(C(C)(C)C)cc2)c1Oc1ccccc1OC` [Example 36f, 4-tert.-butyl-N-[6-(2-ethanesulfonylamino-ethoxy)-5-(o-methoxyphenoxy)-2-methylsulfanyl-pyrimidin-4-yl]-benzenesulfonamide], the IC50 was 478 nM in assay [1] and 1210 nM in assay [2].

`CCS(=O)(=O)NCCOc1nc(S(C)(=O)=O)nc(NS(=O)(=O)c2ccc(C(C)(C)C)cc2)c1Oc1ccccc1OC` [Example 36g]: the concentration for half-maximal inhibition (IC50) is 121 nM in assay [1] and 93 nM in assay [2].

Turning to `COc1ccccc1Oc1c(NS(=O)(=O)c2ccc(C(C)(C)C)cc2)nc(SC)nc1OCCNS(=O)(=O)c1ccc(C)cc1` [Example 37, 4-tert.-butyl-N-[6-(2-p-toluenesulfonylamino-ethoxy)-5-(o-methoxyphenoxy)-2-methylsulfanyl-pyrimidin-4-yl]-benzenesulfonamide], the IC50 was found to be 5680 nM in assay [1] and 604 nM in assay [2].

With `COc1ccccc1Oc1c(NS(=O)(=O)c2ccc(C(C)C)cn2)nc(C2CC2)nc1OCCNS(=O)(=O)c1ccc(C)cc1` [Example 39, 5-i-propyl-N-[6-(2-(4-methylbenzene)-sulfonylamino-ethoxy)-5-(o-methoxyphenoxy)-2-cyclopropyl-pyrimidin-4-yl]-pyridine-2-sulfonamide], the IC50 amounted to 1050 nM in assay [1] (setting [3]) and 81 nM in assay [2] (setting [4]).

As to `COc1ccccc1Oc1c(NS(=O)(=O)c2ccc(C(C)(C)C)cc2)nc(C2CC2)nc1OCCNS(=O)(=O)C(C)C` [Example 40, 4-tert.-butyl-N-[6-(2-(2-propane)-sulfonylamino-ethoxy)-5-(o-methoxyphenoxy)-2-cyclopropyl-pyrimidin-4-yl]-benzene-sulfonamide], the IC50 in assay [1] is 76 nM; in assay [2], 87 nM.

As for `COc1ccccc1Oc1c(NS(=O)(=O)c2ccc(C)cn2)nc(N2CCOCC2)nc1OCCNS(=O)(=O)c1cccs1` [Example 58, 5-methyl-N-[6-(2-(thiophene-2-sulfonylamino)-ethoxy)-5-(o-methoxyphenoxy)-2-(N-morpholino)-4-pyrimidinyl]-2-pyridine sulfonamide], the IC50 in assay [2] (setting [4]) came out at 447 nM.

Turning to `COc1ccccc1Oc1c(NS(=O)(=O)c2ccc(C(C)(C)C)cc2)nc(-c2ncccn2)nc1OCCCNS(=O)(=O)c1cccs1` [Example 90, 4-tert.-butyl-N-[6-(3-(2-thiophenesulfonylamino)-propoxy)-5-(o-methoxyphenoxy)-2-pyrimidinyl-4-pyrimidinyl]-benzene-sulfonamide], the concentration for half-maximal inhibition (IC50) in assay [2] is 4.1 nM.

(Values after patent US6596719B1 (Actelio Pharmaceuticals Ltd., priority 1999, dated 2003).)
